Assay results taken from patent US6358885B1, “Substituted phenylheterocyclic herbicides” (Mississippi State University, priority 1992, dated 2002).

Assays:
barley = assay: Test B preemergence/postemergence greenhouse plant response rating 0 to 10; assay type: in vivo, Hordeum vulgare; conditions: 0 to 10 scale
Summary of the method: (§1)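 Planted seeds are treated preemergence with compound dissolved in a non-phytotoxic solvent, while postemergence applications go onto plants of two to eighteen cm. Plants stay in the greenhouse twelve to sixteen days and are then rated visually relative to controls.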

bedstraw = assay: as above; assay type: in vivo, Galium aparine; conditions: 0 to 10 scale
Summary of the method: as §1

blackgrass [1] = assay: as above; assay type: in vivo, Alopecurus myosuroides; conditions: 0 to 10 scale
Summary of the method: as §1

cheatgrass = assay: as above; assay type: in vivo, Bromus secalinus; conditions: 0 to 10 scale
Summary of the method: as §1

cocklebur = assay: as above; assay type: in vivo, Xanthium pensylvanicum; conditions: 0 to 10 scale
Summary of the method: as §1

cotton = assay: as above; assay type: in vivo, Gossypium hirsutum; conditions: 0 to 10 scale
Summary of the method: as §1

rice = assay: as above; assay type: in vivo, Oryza sativa; conditions: 0 to 10 scale
Summary of the method: as §1

wild buckwheat = assay: as above; assay type: in vivo, Polygonum convolvulus; conditions: 0 to 10 scale
Summary of the method: as §1

blackgrass [2] = assay: Test C preemergence/postemergence greenhouse plant response rating 0 to 100; assay type: in vivo, Alopecurus myosuroides; conditions: for Plant response rating, Blackgrass: 125 g/ha, 0 to 100 scale
Summary of the method: (§2)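 Compounds in non-phytotoxic solvent went onto sandy loam before emergence (seeded one day earlier) or onto plants at the one-to-four leaf stage. Duck salad was treated via flood water (~2.5 cm, maintained) over silt loam.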

corn = assay: as above; assay type: in vivo, Zea mays; conditions: for Plant response rating, Corn: 125 g/ha, 0 to 100 scale
Summary of the method: as §2

giant foxtail = assay: as above; assay type: in vivo, Setaria faberii; conditions: for Plant response rating, Giant foxtail: 125 g/ha, 0 to 100 scale
Summary of the method: as §2

lambsquarters = assay: as above; assay type: in vivo, Chenopodium album; conditions: PREEMERGENCE
Summary of the method: as §2

rape = assay: as above; assay type: in vivo, Brassica napus; conditions: for Plant response rating, Rape: 125 g/ha, 0 to 100 scale
Summary of the method: as §2

ryegrass = assay: as above; assay type: in vivo, Lolium multiflorum; conditions: for Plant response rating Ryegrass: 125 g/ha, 0 to 100 scale
Summary of the method: as §2

sugar beet = assay: as above; assay type: in vivo, Beta vulgaris; conditions: for Plant response rating, Sugar beet: 125 g/ha, 0 to 100 scale
Summary of the method: as §2

wheat = assay: as above; assay type: in vivo, Triticum aestivum; conditions: for Plant response rating, Wheat: 125 g/ha, 0 to 100 scale
Summary of the method: as §2

duck salad = assay: Test C flood test plant response rating 0 to 100; assay type: in vivo, Heteranthera limosa
Summary of the method: as §2

barnyardgrass = assay: Test C flood test plant response rating 0 to 100; assay type: in vivo, Echinochloa crus-galli
Summary of the method: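 Compounds in non-phytotoxic solvent applied preemergence to sandy loam one day after planting, postemergence at the 1–4 leaf stage, or to ~2.5 cm floodwater over silt loam.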

[3] = POSTEMERGENCE section, flood test, Rate 2 g/ha
[4] = Rate 8 g/ha, under POSTEMERGENCE head (flood test species)
[5] = Rate 31 g/ha, under POSTEMERGENCE head (flood test species)
[6] = flood test species listed under POSTEMERGENCE, 125 g/ha, 0 to 100 scale

Structure (SMILES): Fc1cc(Cl)ccc1-c1nn2c(c1Br)CCCC2 [Compound 52]
- Plant response rating, Barley (barley; POSTEMERGENCE, Rate 50 g/ha): 5
- Plant response rating, Barley (barley; POSTEMERGENCE, Rate 200 g/ha): 7
- Plant response rating, Barley (barley; PREEMERGENCE, Rate 50 g/ha): 2
- Plant response rating, Barley (barley; Rate 200 g/ha, PREEMERGENCE): 3
- Plant response rating, Bedstraw (bedstraw; POSTEMERGENCE, Rate 50 g/ha): 10
- Plant response rating, Bedstraw (bedstraw; POSTEMERGENCE, Rate 200 g/ha): 10
- Plant response rating, Bedstraw (bedstraw; PREEMERGENCE, Rate 50 g/ha): 5
- Plant response rating, Bedstraw (bedstraw; Rate 200 g/ha, PREEMERGENCE): 7
- Plant response rating, Blackgrass (blackgrass [1]; POSTEMERGENCE, Rate 50 g/ha): 4
- Plant response rating, Blackgrass (blackgrass [1]; POSTEMERGENCE, Rate 200 g/ha): 5
- Plant response rating, Blackgrass (blackgrass [1]; PREEMERGENCE, Rate 50 g/ha): 4
- Plant response rating, Blackgrass (blackgrass [1]; Rate 200 g/ha, PREEMERGENCE): 6
- Plant response rating, Cheatgrass (cheatgrass; POSTEMERGENCE, Rate 50 g/ha): 4
- Plant response rating, Cheatgrass (cheatgrass; POSTEMERGENCE, Rate 200 g/ha): 7
- Plant response rating, Cheatgrass (cheatgrass; PREEMERGENCE, Rate 50 g/ha): 6
- Plant response rating, Cheatgrass (cheatgrass; Rate 200 g/ha, PREEMERGENCE): 10
- Plant response rating, Cocklebur (cocklebur; POSTEMERGENCE, Rate 50 g/ha): 6
- Plant response rating, Cocklebur (cocklebur; POSTEMERGENCE, Rate 200 g/ha): 8
- Plant response rating, Cocklebur (cocklebur; PREEMERGENCE, Rate 50 g/ha): 0
- Plant response rating, Cocklebur (cocklebur; Rate 200 g/ha, PREEMERGENCE): 0
- Plant response rating, Cotton (cotton; POSTEMERGENCE, Rate 50 g/ha): 10
- Plant response rating, Cotton (cotton; POSTEMERGENCE, Rate 200 g/ha): 10
- Plant response rating, Cotton (cotton; PREEMERGENCE, Rate 50 g/ha): 0
- Plant response rating, Cotton (cotton; Rate 200 g/ha, PREEMERGENCE): 3
- Plant response rating, Rice (rice; POSTEMERGENCE, Rate 50 g/ha): 4
- Plant response rating, Rice (rice; PREEMERGENCE, Rate 50 g/ha): 0
- Plant response rating, Rice (rice; Rate 200 g/ha, POSTEMERGENCE): 6
- Plant response rating, Rice (rice; Rate 200 g/ha, PREEMERGENCE): 1
- Plant response rating, Wild buckwheat (wild buckwheat; POSTEMERGENCE, Rate 50 g/ha): 10
- Plant response rating, Wild buckwheat (wild buckwheat; PREEMERGENCE, Rate 50 g/ha): 7
- Plant response rating, Wild buckwheat (wild buckwheat; Rate 200 g/ha, POSTEMERGENCE): 10
- Plant response rating, Wild buckwheat (wild buckwheat; Rate 200 g/ha, PREEMERGENCE): 10
- Plant response rating, Blackgrass (blackgrass [2]; POSTEMERGENCE): 60
- Plant response rating (0 to 100), Blackgrass (blackgrass [2]; POSTEMERGENCE, Rate 2 g/ha): 10
- Plant response rating, Blackgrass (blackgrass [2]; PREEMERGENCE): 50
- Plant response rating (0 to 100), Blackgrass (blackgrass [2]; PREEMERGENCE, Rate 2 g/ha): 0
- Plant response rating (0 to 100), Blackgrass (blackgrass [2]; Rate 8 g/ha, POSTEMERGENCE): 20
- Plant response rating (0 to 100), Blackgrass (blackgrass [2]; Rate 8 g/ha, PREEMERGENCE): 0
- Plant response rating (0 to 100), Blackgrass (blackgrass [2]; Rate 31 g/ha, POSTEMERGENCE): 40
- Plant response rating (0 to 100), Blackgrass (blackgrass [2]; Rate 31 g/ha, PREEMERGENCE): 0
- Plant response rating, Corn (corn; POSTEMERGENCE): 50
- Plant response rating (0 to 100), Corn (corn; POSTEMERGENCE, Rate 2 g/ha): 20
- Plant response rating, Corn (corn; PREEMERGENCE): 0
- Plant response rating (0 to 100), Corn (corn; PREEMERGENCE, Rate 2 g/ha): 0
- Plant response rating (0 to 100), Corn (corn; Rate 8 g/ha, POSTEMERGENCE): 30
- Plant response rating (0 to 100), Corn (corn; Rate 8 g/ha, PREEMERGENCE): 0
- Plant response rating (0 to 100), Corn (corn; Rate 31 g/ha, POSTEMERGENCE): 40
- Plant response rating (0 to 100), Corn (corn; Rate 31 g/ha, PREEMERGENCE): 0
- Plant response rating, Giant foxtail (giant foxtail; POSTEMERGENCE): 85
- Plant response rating (0 to 100), Giant foxtail (giant foxtail; POSTEMERGENCE, Rate 2 g/ha): 20
- Plant response rating, Giant foxtail (giant foxtail; PREEMERGENCE): 90
- Plant response rating (0 to 100), Giant foxtail (giant foxtail; PREEMERGENCE, Rate 2 g/ha): 0
- Plant response rating (0 to 100), Giant foxtail (giant foxtail; Rate 8 g/ha, POSTEMERGENCE): 40
- Plant response rating (0 to 100), Giant foxtail (giant foxtail; Rate 8 g/ha, PREEMERGENCE): 10
- Plant response rating (0 to 100), Giant foxtail (giant foxtail; Rate 31 g/ha, POSTEMERGENCE): 50
- Plant response rating (0 to 100), Giant foxtail (giant foxtail; Rate 31 g/ha, PREEMERGENCE): 30
- Plant response rating Lambsquarters (lambsquarters; 125 g/ha, 0 to 100 scale): 100
- Plant response rating (0 to 100), Lambsquarters (lambsquarters; Rate 2 g/ha): 0
- Plant response rating (0 to 100), Lambsquarters (lambsquarters; Rate 8 g/ha): 0
- Plant response rating (0 to 100), Lambsquarters (lambsquarters; Rate 31 g/ha): 50
- Plant response rating, Rape (rape; POSTEMERGENCE): 100
- Plant response rating (0 to 100), Rape (rape; POSTEMERGENCE, Rate 2 g/ha): 10
- Plant response rating, Rape (rape; PREEMERGENCE): 60
- Plant response rating (0 to 100), Rape (rape; PREEMERGENCE, Rate 2 g/ha): 0
- Plant response rating (0 to 100), Rape (rape; Rate 8 g/ha, POSTEMERGENCE): 40
- Plant response rating (0 to 100), Rape (rape; Rate 8 g/ha, PREEMERGENCE): 0
- Plant response rating (0 to 100), Rape (rape; Rate 31 g/ha, POSTEMERGENCE): 70
- Plant response rating (0 to 100), Rape (rape; Rate 31 g/ha, PREEMERGENCE): 10
- Plant response rating Ryegrass (ryegrass; POSTEMERGENCE): 60
- Plant response rating (0 to 100), Ryegrass (ryegrass; POSTEMERGENCE, Rate 2 g/ha): 10
- Plant response rating Ryegrass (ryegrass; PREEMERGENCE): 50
- Plant response rating (0 to 100), Ryegrass (ryegrass; PREEMERGENCE, Rate 2 g/ha): 0
- Plant response rating (0 to 100), Ryegrass (ryegrass; Rate 8 g/ha, POSTEMERGENCE): 20
- Plant response rating (0 to 100), Ryegrass (ryegrass; Rate 8 g/ha, PREEMERGENCE): 0
- Plant response rating (0 to 100), Ryegrass (ryegrass; Rate 31 g/ha, POSTEMERGENCE): 40
- Plant response rating (0 to 100), Ryegrass (ryegrass; Rate 31 g/ha, PREEMERGENCE): 10
- Plant response rating, Sugar beet (sugar beet; POSTEMERGENCE): 100
- Plant response rating (0 to 100), Sugar beet (sugar beet; POSTEMERGENCE, Rate 2 g/ha): 70
- Plant response rating, Sugar beet (sugar beet; PREEMERGENCE): 100
- Plant response rating (0 to 100), Sugar beet (sugar beet; PREEMERGENCE, Rate 2 g/ha): 0
- Plant response rating (0 to 100), Sugar beet (sugar beet; Rate 8 g/ha, POSTEMERGENCE): 70
- Plant response rating (0 to 100), Sugar beet (sugar beet; Rate 8 g/ha, PREEMERGENCE): 0
- Plant response rating (0 to 100), Sugar beet (sugar beet; Rate 31 g/ha, POSTEMERGENCE): 100
- Plant response rating (0 to 100), Sugar beet (sugar beet; Rate 31 g/ha, PREEMERGENCE): 70
- Plant response rating, Wheat (wheat; POSTEMERGENCE): 50
- Plant response rating (0 to 100), Wheat (wheat; POSTEMERGENCE, Rate 2 g/ha): 10
- Plant response rating, Wheat (wheat; PREEMERGENCE): 60
- Plant response rating (0 to 100), Wheat (wheat; PREEMERGENCE, Rate 2 g/ha): 0
- Plant response rating (0 to 100), Wheat (wheat; Rate 8 g/ha, POSTEMERGENCE): 20
- Plant response rating (0 to 100), Wheat (wheat; Rate 8 g/ha, PREEMERGENCE): 0
- Plant response rating (0 to 100), Wheat (wheat; Rate 31 g/ha, POSTEMERGENCE): 30
- Plant response rating (0 to 100), Wheat (wheat; Rate 31 g/ha, PREEMERGENCE): 0
- Plant response rating (0 to 100), Duck salad (duck salad; [3]): 0
- Plant response rating (0 to 100), Duck salad (duck salad; [4]): 0
- Plant response rating (0 to 100), Duck salad (duck salad; [5]): 20
- Plant response rating Duck salad (duck salad; [6]): 85
- Plant response rating (0 to 100), Barnyardgrass 2 (barnyardgrass; [3]): 25
- Plant response rating (0 to 100), Barnyardgrass 2 (barnyardgrass; [4]): 95
- Plant response rating (0 to 100), Barnyardgrass 2 (barnyardgrass; [5]): 100
- Plant response rating Barnyardgrass 2 (barnyardgrass; [6]): 100
